Reference: US4141991A, “Ferrocene derivatives” (Hoechst Aktiengesellschaft, priority 1976, dated 1979)

Key:
liver ferritin [1] = assay: Analysis of the ferritin from rat livers (quantitative determination of ferritin protein and its iron content); format: in vivo; conditions: for Ratio of iron to protein: rat liver ferritin, two successive daily doses corresponding to 52.5 mg Fe/kg; for Ratio of iron to protein / Ferritin-iron / Ferritin-protein: average values from 6 animals; for Ferritin-iron / Ferritin-protein: two successive daily doses corresponding to 52.5 mg Fe/kg (table; text 52.2), 24 hours after 2nd administration
Experimental: 24 hours after the 2nd administration the animals were killed. […] For this, ferritin is isolated from the liver by thermal denaturation, ammonium sulfate fractionation and gel filtration, and the protein is determined by amino acid analysis and the iron content by atom absorption.

liver ferritin [2] = assay: Histological comparison test of liver ferritin (Berlin-blue reaction); format: in vivo; conditions: 6 male rats and 6 male mice; 2 doses corresponding to 52.2 mg Fe/kg; 24 hours after 2nd administration
Experimental: After oral administration, sideropenia resulting from by-passing the normal regulating mechanism in the intestine for ionic iron, is quickly compensated. Thus, the results of an iron-deficient diet for rats and mice, such as reduced body weight, decrease of hemoglobin, of the hematocrit, of the serum iron and of the number of erythrocytes, is fully compensated by the administration once of a dose of one of the compounds according to the invention corresponding to 2 mg of iron per animal. The compounds according to the invention are resorbed well orally, the excretion of unchanged substance in urine usually being less than 1%. The compounds are distinguished by a distinct nontoxicity, the LD50 of 4-ferrocenoyl-cyclohexene thus amounting to 2000 mg/kg in mice and 3,000 mg/kg in rats. As can be shown by biochemical determination of the ferritin protein and its degree of iron saturation, the compounds are completely metabolised in the liver, that is, the iron is released and incorporated in the storage form that can be used to form hemoglobin, that is in liver ferritin, and in the case of an excess of added substance, in ferritin and in hemosiderin. These discoveries are supported by histological comparison tests, in which the increase of liver ferritin is recognisable in a Berlin-blue reaction in the form of a uniform blue shading of the cytoplasma of the liver cells, and any hemosiderin that may have formed is recognisable in the form of fine blue grains.
The compounds were administered to 6 male rats and 6 male mice on two successive days in individual doses corresponding to an iron content of 52.2 mg Fe per kg of animal. 24 hours after the 2nd administration the animals were killed. […] The quantitative determination of the ferritin protein and its iron content (table) confirm these findings. For this, ferritin is isolated from the liver by thermal denaturation, ammonium sulfate fractionation and gel filtration, and the protein is determined by amino acid analysis and the iron content by atom absorption.

[3] = system: ability to utilize the iron; conditions: among 2a-d, according to details in the literature; cited from earlier work
mice = assay: Acute toxicity (LD50) in mice
rats = assay: Acute toxicity (LD50) in rats

Row | Compound | Ratio of iron to protein (liver ferritin [1]) | Ferritin-iron (liver ferritin [1]; rat liver) | Ferritin-protein (liver ferritin [1]; rat liver) | histological increase of the liver ferritin (liver ferritin [2]) | ability to utilize the iron [3] | ferritin protein and its iron content in comparison with the known compounds 2a-d (liver ferritin [1]; rat liver, after administration, from the table) | LD50 (mice) | hemosiderin particles, histologically (liver ferritin [2]) | LD50 (rats)
1 | O=C([c-]1cccc1)C1CCCCC1.[Fe+2].c1cc[cH-]c1 [Example 2a, hexahydrobenzoyl ferrocene] | 0.43 | 209 μg/g tissue | 475 μg/g tissue | – | – | – | – | – | –
2 | 1,1'-di-neopentyl ferrocene [Example 2d] | 0.38 | 61 μg/g tissue | 130 μg/g tissue | do not cause any histologically recognisable increase of the liver ferritin | the best, especially regarding its ability to utilize the iron | – | – | – | –
3 | 1,1'-di-hexahydrobenzoyl ferrocene [Example 2c] | 0.42 | 94 μg/g tissue | 224 μg/g tissue | do not cause any histologically recognisable increase of the liver ferritin | – | – | – | – | –
4 | 1,1'-di-(3,5,5-trimethyl-hexanoyl)-ferrocene [Example 2b] | 0.26 | 148 μg/g tissue | 567 μg/g tissue | – | – | – | – | – | –
5 | O=C([c-]1cccc1)C1CC=CCC1.[Fe+2].c1cc[cH-]c1 (centres unmarked) [Example 1, 4-Ferrocenoyl-cyclohexene] | 1.19 | 1133 μg/g tissue | 950 μg/g tissue | in comparison with 2a and 2b exhibits a substantially greater increase of the liver ferritin | – | clearly increased more markedly | 2000 mg/kg | individual hemosiderin particles are observed | 3,000 mg/kg
